# Data reported in the supplement of paper PMC10307832.
# Legend:
# Assay in all cases: relative viability (nuclei count vs DMSO), 5 days (fraction); higher = more cells survive
# ChaGo-K-1 = tested on: ChaGo-K-1
# In short: (§1)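 Lung cancer cell lines, seeded in 1536-well plates, were treated the following day by pin tool with a single drug or with five library-drug doses (not always all listed) in √10 steps on top of a fixed anchor-drug dose. Cells were fixed and nuclei stained in one step after 5 days, and nuclei were counted. Relative viability is the nuclei count for treated wells divided by that for vehicle wells, reported as medians of duplicate plates.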
# HCC-827 = tested on: HCC-827
# In short: as §1
# NCI-H1755 = tested on: NCI-H1755
# In short: as §1
# NCI-H2347 = tested on: NCI-H2347
# In short: as §1
# NCI-H322M = tested on: NCI-H322M
# In short: as §1
# NCI-H520 = tested on: NCI-H520
# In short: as §1
# LXF-289 = tested on: LXF-289
# In short: as §1
# RERF-LC-KJ = tested on: RERF-LC-KJ
# In short: as §1
# ABC-1 = tested on: ABC-1
# In short: as §1
# NCI-H3122 = tested on: NCI-H3122
# In short: as §1
# NCI-H1793 = tested on: NCI-H1793
# In short: as §1
# LCLC-103H = tested on: LCLC-103H
# In short: as §1
# LU99A = tested on: LU99A
# In short: as §1
# NCI-H1944 = tested on: NCI-H1944
# In short: as §1
# NCI-H2126 = tested on: NCI-H2126
# In short: as §1
# HCC-44 = tested on: HCC-44
# In short: as §1
# NCI-H1395 = tested on: NCI-H1395
# In short: as §1
# CAL-12T = tested on: CAL-12T
# In short: as §1
# NCI-H358 = tested on: NCI-H358
# In short: as §1
# SK-LU-1 = tested on: SK-LU-1
# In short: as §1
# NCI-H1666 = tested on: NCI-H1666
# In short: as §1
structure (smiles),measurement,setting,value
Cc1cn(-c2cc(NC(=O)c3ccc(C)c(Nc4nccc(-c5cccnc5)n4)c3)cc(C(F)(F)F)c2)cn1 [Nilotinib] + Cc1cc(Nc2cc(N3CCN(C)CC3)nc(Sc3ccc(NC(=O)C4CC4)cc3)n2)n[nH]1 [Tozasertib] (partner 0.1 µM),relative viability,ChaGo-K-1; first compound 0.001 µM,0.205
same,relative viability,ChaGo-K-1; first compound 0.003162 µM,0.229
same,relative viability,ChaGo-K-1; first compound 0.01 µM,0.202
same,relative viability,ChaGo-K-1; first compound 0.03162 µM,0.162
same,relative viability,ChaGo-K-1; first compound 0.1 µM,0.138
same,relative viability,HCC-827; first compound 0.003162 µM,0.521
same,relative viability,HCC-827; first compound 0.01 µM,0.529
same,relative viability,HCC-827; first compound 0.03162 µM,0.39
same,relative viability,HCC-827; first compound 0.1 µM,0.379
same,relative viability,NCI-H1755; first compound 0.001 µM,0.537
same,relative viability,NCI-H1755; first compound 0.003162 µM,0.548
same,relative viability,NCI-H1755; first compound 0.01 µM,0.483
same,relative viability,NCI-H1755; first compound 0.03162 µM,0.578
same,relative viability,NCI-H1755; first compound 0.1 µM,0.415
same,relative viability,NCI-H2347; first compound 0.001 µM,0.451
same,relative viability,NCI-H2347; first compound 0.003162 µM,0.463
same,relative viability,NCI-H2347; first compound 0.01 µM,0.489
same,relative viability,NCI-H2347; first compound 0.03162 µM,0.476
same,relative viability,NCI-H2347; first compound 0.1 µM,0.3
same,relative viability,NCI-H322M; first compound 0.001 µM,0.471
same,relative viability,NCI-H322M; first compound 0.003162 µM,0.427
same,relative viability,NCI-H322M; first compound 0.01 µM,0.492
same,relative viability,NCI-H322M; first compound 0.03162 µM,0.456
same,relative viability,NCI-H322M; first compound 0.1 µM,0.548
same,relative viability,NCI-H520; first compound 0.001 µM,0.486
same,relative viability,NCI-H520; first compound 0.003162 µM,0.46
same,relative viability,NCI-H520; first compound 0.01 µM,0.428
same,relative viability,NCI-H520; first compound 0.03162 µM,0.462
same,relative viability,NCI-H520; first compound 0.1 µM,0.386
same,relative viability,LXF-289; first compound 0.001 µM,0.254
same,relative viability,LXF-289; first compound 0.003162 µM,0.189
same,relative viability,LXF-289; first compound 0.01 µM,0.222
same,relative viability,LXF-289; first compound 0.03162 µM,0.127
same,relative viability,LXF-289; first compound 0.1 µM,0.153
same,relative viability,RERF-LC-KJ; first compound 0.001 µM,0.335
same,relative viability,RERF-LC-KJ; first compound 0.003162 µM,0.416
same,relative viability,RERF-LC-KJ; first compound 0.01 µM,0.305
same,relative viability,RERF-LC-KJ; first compound 0.03162 µM,0.349
same,relative viability,RERF-LC-KJ; first compound 0.1 µM,0.302
same,relative viability,ABC-1; first compound 0.001 µM,0.175
same,relative viability,ABC-1; first compound 0.003162 µM,0.176
same,relative viability,ABC-1; first compound 0.01 µM,0.168
same,relative viability,ABC-1; first compound 0.03162 µM,0.232
same,relative viability,ABC-1; first compound 0.1 µM,0.237
same,relative viability,NCI-H3122; first compound 0.001 µM,0.364
same,relative viability,NCI-H3122; first compound 0.003162 µM,0.519
same,relative viability,NCI-H3122; first compound 0.01 µM,0.436
same,relative viability,NCI-H3122; first compound 0.03162 µM,0.374
same,relative viability,NCI-H3122; first compound 0.1 µM,0.18
same,relative viability,NCI-H1793; first compound 0.001 µM,0.248
same,relative viability,NCI-H1793; first compound 0.003162 µM,0.298
same,relative viability,NCI-H1793; first compound 0.01 µM,0.3
same,relative viability,NCI-H1793; first compound 0.03162 µM,0.306
same,relative viability,NCI-H1793; first compound 0.1 µM,0.296
same,relative viability,LCLC-103H; first compound 0.001 µM,0.347
same,relative viability,LCLC-103H; first compound 0.003162 µM,0.425
same,relative viability,LCLC-103H; first compound 0.01 µM,0.452
same,relative viability,LCLC-103H; first compound 0.03162 µM,0.364
same,relative viability,LCLC-103H; first compound 0.1 µM,0.293
same,relative viability,LU99A; first compound 0.001 µM,0.232
same,relative viability,LU99A; first compound 0.003162 µM,0.268
same,relative viability,LU99A; first compound 0.01 µM,0.211
same,relative viability,LU99A; first compound 0.03162 µM,0.256
same,relative viability,LU99A; first compound 0.1 µM,0.226
same,relative viability,NCI-H1944; first compound 0.001 µM,0.248
same,relative viability,NCI-H1944; first compound 0.003162 µM,0.3
same,relative viability,NCI-H1944; first compound 0.01 µM,0.248
same,relative viability,NCI-H1944; first compound 0.03162 µM,0.197
same,relative viability,NCI-H2126; first compound 0.001 µM,0.786
same,relative viability,NCI-H2126; first compound 0.003162 µM,0.857
same,relative viability,NCI-H2126; first compound 0.01 µM,0.963
same,relative viability,NCI-H2126; first compound 0.03162 µM,0.599
same,relative viability,NCI-H2126; first compound 0.1 µM,0.438
same,relative viability,HCC-44; first compound 0.001 µM,0.615
same,relative viability,HCC-44; first compound 0.003162 µM,0.842
same,relative viability,HCC-44; first compound 0.01 µM,0.948
same,relative viability,HCC-44; first compound 0.03162 µM,0.621
same,relative viability,HCC-44; first compound 0.1 µM,0.487
same,relative viability,NCI-H1395; first compound 0.001 µM,0.691
same,relative viability,NCI-H1395; first compound 0.003162 µM,0.674
same,relative viability,NCI-H1395; first compound 0.01 µM,0.751
same,relative viability,NCI-H1395; first compound 0.03162 µM,0.612
same,relative viability,NCI-H1395; first compound 0.1 µM,0.736
same,relative viability,CAL-12T; first compound 0.001 µM,0.197
same,relative viability,CAL-12T; first compound 0.003162 µM,0.217
same,relative viability,CAL-12T; first compound 0.01 µM,0.219
same,relative viability,CAL-12T; first compound 0.03162 µM,0.172
same,relative viability,CAL-12T; first compound 0.1 µM,0.211
same,relative viability,NCI-H358; first compound 0.001 µM,0.0908
same,relative viability,NCI-H358; first compound 0.003162 µM,0.0985
same,relative viability,NCI-H358; first compound 0.01 µM,0.0881
same,relative viability,NCI-H358; first compound 0.03162 µM,0.101
same,relative viability,NCI-H358; first compound 0.1 µM,0.116
same,relative viability,SK-LU-1; first compound 0.001 µM,0.304
same,relative viability,SK-LU-1; first compound 0.003162 µM,0.292
same,relative viability,SK-LU-1; first compound 0.01 µM,0.287
same,relative viability,SK-LU-1; first compound 0.03162 µM,0.293
same,relative viability,SK-LU-1; first compound 0.1 µM,0.286
same,relative viability,NCI-H1666; first compound 0.001 µM,0.493
same,relative viability,NCI-H1666; first compound 0.003162 µM,0.566
same,relative viability,NCI-H1666; first compound 0.01 µM,0.531
same,relative viability,NCI-H1666; first compound 0.03162 µM,0.518
same,relative viability,NCI-H1666; first compound 0.1 µM,0.556
